# Reference: patent US9855285B2, “Method of inhibiting the expression of IL-22 in activated T-cells” (LEO PHARMA A/S, priority 2012, dated 2018)
# Entries after “also recorded” stand apart in the source; their conditions may differ.
# Legend:
# [1] = test system: keratinocyte proliferation; details: cited from earlier work
# human Th1/Th17 cells = assay: In vitro assay using activated human T-cells differentiated into Th1/Th17 cells; cytokines released in the supernatant; type: cell-based
# Procedure: CD4+ T cells were first negatively isolated from human peripheral blood of healthy donors using RosetteSep® separation system from STEMCELL.
# Subsequently, CD4+ T cells were activated by crosslinking the cell surface proteins CD3 and CD28 with specific antibodies.
# To induce Th1/Th17 differentiation, activated CD4+ T cells were then cultured in flasks at density of 2-5×10^6 cells per ml of culture in X-VIVO 15 serum-free medium in presence of growth and differentiation factors cocktail, containing the following: • rhIL-2 at 10 ng/ml • rhTGF-β at 10 ng/ml • rhIL-1β at 10 ng/ml • rhIL-6 at 10 ng/ml • rhIL-23 at 20 ng/ml • Antibody anti-IL-4 at 1 μg/ml • Antibody anti-IL-13 at 1 μg/ml
# Culture media had been refreshed every second day and T cells were cultured up to 5-7 days to allow a complete differentiation into Th1/Th17 cells.
# Once the T cells are differentiated into Th1/Th17 cells, cells are rinsed from the differentiation media and placed in assay media (X-VIVO 15 media containing 10 ng/ml rhIL-2 only) at the final concentration of 1-1.5×10^6 cells/ml in wells with 0.250 ml cell suspension per well (0.25-0.375×10^6 cells/well/sample) with and without test compound treatment for 24 hours. At the termination time point, the effect of anti-inflammatory drugs is assessed by measuring the level of phenotype related cytokines released in the cell culture supernatants. Duplicates and cells from different donors are used for each treatment.
# After differentiation for 5-6 days, all the cells were carefully washed and placed in growth media containing IL-2 (X-VIVO+10 ng/ml IL-2) at a final concentration of 1-1.5×10^6 cells/ml. […] Assays were performed in duplicates and included undifferentiated human T cells (negative control) and treated or untreated differentiated human Th1/Th17 cells. All cells were cultured under similar conditions in assay media containing 0.1% DMSO with or without test compounds.
# Th1/Th17 cells were treated for 24 hours with or without test compounds.
# Supernatants were collected from all samples and assessed for cytokine expression (IL-6, IL-8, IL-17, IL-22 and TNF-α). All cytokines were measured (as pg/ml) using MSD kits except IL-22 which was measured by ELISA.
# Data analysis and graphs were made in Excel or GraphPad Prism. Statistical analysis was made using 1 way ANOVA corrected by Dunnett's Multiple Comparison Test.
# [2] = test compound alone, 24 hours, ELISA
# [3] = vitamin D analogue 100 nM in combination with Compound A 1 μM
# [4] = PDE4 inhibitor 1 μM alone or in combination with calcipotriol 100 nM
smiles,measurement,setting,value
"C=C1/C(=C\C=C2/CCC[C@]3(C)[C@@H]([C@H](C)/C=C/[C@@H](O)C4CC4)CC[C@@H]23)C[C@@H](O)C[C@@H]1O [calcipotriol, Calcipotriol]",concentration required to affect keratinocyte proliferation,[1],28 nM
same,upregulation of IL-22 expression,human Th1/Th17 cells; calcipotriol 10 pM together with Compound A 1 μM,lost
same,upregulation of IL-22 expression,human Th1/Th17 cells; calcipotriol 100 pM together with Compound A 1 μM,inhibited the upregulation
same,upregulation of IL-22 expression,human Th1/Th17 cells; calcipotriol 500 pM together with Compound A 1 μM,inhibited the upregulation
same,upregulation of IL-22 expression,human Th1/Th17 cells; calcipotriol 1 nM together with Compound A 1 μM,inhibited the upregulation
same,upregulation of IL-22 expression,human Th1/Th17 cells; calcipotriol 100 nM together with Compound A 1 μM,inhibited the upregulation
same,expression of IL-6,"human Th1/Th17 cells; test compound alone, 24 hours",did not have any effect
same,expression of IL-8,"human Th1/Th17 cells; test compound alone, 24 hours",strongly inhibited
same,expression of IL-17,"human Th1/Th17 cells; test compound alone, 24 hours",to some extent
same,expression of TNFα,"human Th1/Th17 cells; test compound alone, 24 hours",did not have any effect
same,expression of IL-22,human Th1/Th17 cells; [2],strongly inhibiting; also recorded: downregulate; also recorded: strongly inhibited
same,expression of IL-22,"human Th1/Th17 cells; test compound alone, 24 hours, ELISA, listed as Calcipotriol",significantly inhibits
same,expression of IL-8,"human Th1/Th17 cells; test compound alone, 24 hours, listed as Calcipotriol",inhibits
same,expression and secretion of IL-22,"human Th1/Th17 cells; vitamin D analogue 100 nM alone, compared to vehicle treated control",significantly inhibits
same,expression and secretion of IL-22,human Th1/Th17 cells; [3],comparable efficacy as Calcipotriol
"COc1cccc(Nc2c(C(N)=O)cnc3c(C)cc(S(=O)(=O)c4cccc(C(=O)N(C)C)c4)cc23)c1.Cl [GSK256066, 6-[3-(N,N-dimethylcarbamoyl)phenylsulfonyl]-4-(3-methoxyphenylamino)-8-methylquinoline-3-carboxamide hydrochloride]",expression and secretion of IL-22,human Th1/Th17 cells; [4],comparable efficacy to Compound A
C=C1/C(=C\C=C2/CCC[C@]3(C)[C@@H]([C@H](C)CCCC(C)(C)O)CC[C@@H]23)C[C@@H](O)C[C@@H]1O [calcitriol],expression of IL-22,human Th1/Th17 cells; [2],downregulate
same,expression and secretion of IL-22,human Th1/Th17 cells; [3],comparable efficacy as Calcipotriol
"CCCNC(=O)COc1c(C(=O)Cc2ccnc(Cl)c2Cl)ccc(OC)c1OC [Compound A, 2-{6-[2-(2,3-dichloropyridin-4-yl)acetyl]-2,3-dimethoxyphenoxy}-N-propylacetamide]",expression of IL-22,"human Th1/Th17 cells; PDE4 inhibitor 1 μM alone, compared to vehicle treated control",increases
same,expression of IL-6,"human Th1/Th17 cells; test compound alone, 24 hours",weakly; also recorded: significantly inhibits
same,expression of IL-8,"human Th1/Th17 cells; test compound alone, 24 hours",did not have any effect
same,expression of IL-17,"human Th1/Th17 cells; test compound alone, 24 hours",to some degree
same,expression of TNFα,"human Th1/Th17 cells; test compound alone, 24 hours",strongly decreased; also recorded: significantly inhibits
same,expression of IL-22,human Th1/Th17 cells; [2],dose-dependent upregulation; also recorded: increased; also recorded: significantly increases
"CCOc1ccc(-c2nc(-c3cccc(C(=O)O)n3)cs2)cc1OCC [Tetomilast, 6-[2-(3,4-diethoxyphenyl)thiazol-4-yl]pyridine-2-caboxylic acid]",expression and secretion of IL-22,human Th1/Th17 cells; [4],comparable efficacy to Compound A
C=C1/C(=C\C=C2/CCC[C@]3(C)[C@@H]([C@H](C)OCCC(C)(C)O)CC[C@@H]23)C[C@@H](O)C[C@@H]1O [maxacalcitol],expression of IL-22,human Th1/Th17 cells; [2],downregulate
same,expression and secretion of IL-22,human Th1/Th17 cells; [3],comparable efficacy as Calcipotriol
C=C1/C(=C\C=C2/CCC[C@]3(C)[C@@H]([C@H](C)CC[C@@H](O)C(C)C)CC[C@@H]23)C[C@@H](O)C[C@@H]1O [tacalcitol],expression of IL-22,human Th1/Th17 cells; [2],downregulate
same,expression and secretion of IL-22,human Th1/Th17 cells; [3],comparable efficacy as Calcipotriol
"O=C(Nc1c(Cl)cncc1Cl)c1ccc(OC(F)F)c(OCC2CC2)c1 [Roflumilast, 3-(cyclopropylmethoxy)-N-(3,5-dichloropyridin-4-yl)4-(difluoromethoxy)benzamide]",expression and secretion of IL-22,human Th1/Th17 cells; [4],comparable efficacy to Compound A
"N#Cc1ccc(Oc2ccc3c(c2)COB3O)cc1 [AN2728, 4-(1-hydroxy-1,3-dihydro-2,1-benzoxaborol-5-yloxy)benzonitrile]",expression and secretion of IL-22,human Th1/Th17 cells; [4],comparable efficacy to Compound A
